Assay results reported in patent US8198322B2, “Apoptotic and anti-tumor activities of metallo-salens” (Board of Regents, The University of Texas System, priority 2008, dated 2012).
“And” between values parts separate entries of the source, which are not always exact repeats. Identical values can stand only once. “Also recorded” adds a separate entry of the source. Like-named read-outs stand apart in the source and are kept apart here.

Assays:
[1] = test system: MCF-7 cells; test: Cytotoxicity assay (IC50 measurement, MTT); assay type: cell-based, human; details: MCF-7, 96 hrs
Method: Cytotoxicity assay (IC50 measurement): The cytotoxicity of Fe(III)-salen and its derivatives was determined by using MTT assay as described previously^42. In brief, approximately 10,000 MCF-7 cells were seeded into each well of a 96 well micro titer plate and incubated 24 hrs in presence of 150 μL DMEM. An additional 50 μL DMEM containing required amount of each metallo-salen to obtain 0.05 to 60 μM final concentration (in 200 μL final volume) in 8 replicate wells were added. Control wells were treated with equivalent amount of DMSO. After 96 hrs of incubation, 20 μL of MTT (5 mg/mL) was added into each well and cell viability was assayed by measuring the formazan absorption at 560 nm as described above. The absorbance (at 560 nm) values were plotted against concentration of metallo-salens to determine the IC50. The studies were repeated twice with 8 replicates each time.
The concentration of the metal-complexes at which the conversion of MTT to formazan by viable cells is reduced by 50% compared to control cells is defined as the IC50. The percent of cell survival relative to the control cells were plotted as a function of concentration of the metallo-salen derivatives.

[2] = test system: MCF-7 cells; test: Cell viability assay (MTT, DIC microscopy) at 20 μM; assay type: cell-based, human; parameters: key to Summary of cell viability activities (active/inactive): Y and N indicates active and inactive compounds respectively; Y and N indicates active and inactive compounds respectively; details: for Summary of cell viability activities (active/inactive): MCF-7 cells, 20 μM, 24-96 hrs, MTT; for effect on cell viability (in words): MCF-7, 20 μM, up to 96 hrs
Method: (A-F): MCF-7 cells were treated with 20 μM metallo-salens and incubated for varying time periods (24-96 hrs). Viable cells were quantified using MTT assay. The percent viable cells (relative to control, treated with equivalent amount of DMSO) were plotted as a function of time for each compound. This experiment was repeated twice with 8 replicate treatments each time. Bars indicates standard errors of mean (SEM). Curves 1-42 in FIGS. 2A-2F, represent the viability curves for compounds 1-42 respectively. (A′-F′) DIC images of the corresponding MCF-7 cells that were treated with DMSO (control panel), or with 20 μM Mn(III)- and Fe(III)-salen complexes for 72 hrs showing the visual effects on cellular morphology and growth/death.
Cell viability assay: Approximately 10,000 MCF-7 cells were seeded into each well of a 96 well micro titer plate and incubated 24 hrs in presence of 150 μL DMEM. An additional 50 μL DMEM containing required amount of each metallo-salen to obtain 20 μM final concentrations (in 200 μL final volume) in 8 replicate wells were added. Control wells were treated with equivalent amount of dimethylsulfoxide (DMSO). The viability of the cells was assayed at 24, 48, 72 and 96 hrs post treatment by using both microscopic observation and MTT assay. For microscopic observation cells were stained with trypan blue for at least 10 minute and observed under Differential Interference Contrast (DIC) setting of a fluorescence microscope (Nikon Eclipse TE2000-U, Japan). The MTT assay was performed as described previously^42. In brief, 20 μL MTT (5 mg/ml in PBS) was added into each wells and incubated for 2 hrs under normal growth condition to allow the viable cell to convert MTT to formazan. Then the media was discarded and formazan crystals were dissolved by adding 100 μL of DMSO and incubating 2 hrs with continuous shaking. The absorbance of the lysates were directly measured at 560 nm using a micro plate reader (Fluostar-omega, BMG Labtech). The absorbance values (which are proportional to the viable cell) are plotted as a function of time. The studies were repeated twice with 8 replicates each time.
The inventors studied the effect of Mn(III)-salen and Fe(III)-salen derivatives on the cell viability of cultured breast cancer cells MCF-7 in order to investigate the biochemical effects of the derivatives. The cells were incubated alone or with 20 μM of each of the metallo-salen derivatives separately (compounds 1-45) for varying time periods (0-96 hrs). The viable cells were quantified using MTT assay and the percent of cell survived (relative to the control untreated cells) were plotted against time (FIGS. 2A-2F).

[3] = read-out: IC50 toward MCF-7 cells
[4] = read-out: IC50 values for different complexes in MCF-7 cells

Row | Molecule | IC50 [1, 3] [µM] | Summary of cell viability activities (active/inactive) [2] | IC50 [1, 4] | effect on cell viability (in words) [2]
1 | COc1ccc(C=Nc2ccccc2N=Cc2ccc(OC)cc2[O-])c([O-])c1.[Cl-].[Fe+3] [compound 34, 4,4′-Dimethoxysalphen Fe(III) chloride] | 0.68 | Y (34) |  | 
2 | [Cl-].[Fe+3].[O-]c1ccccc1C=Nc1ccccc1N=Cc1ccccc1[O-] [compound 29, Fe(III)-salphen.chloride] |  | Y (29) | 1.25 µM | 
3 | CC(=O)[O-].[Mn+3].[O-]c1cc(O)ccc1C=Nc1cc2ccccc2cc1N=Cc1ccc(O)cc1[O-] [compound 17, 4,4′-Dihydroxysalnaphen Mn(III) acetate] |  | Y (17) | 21.4 µM | effective in inducing cell death
4 | CC(=O)[O-].COc1ccc([O-])c(C=NCCN=Cc2cc(OC)ccc2[O-])c1.[Mn+3] [compound 7, 5,5′-Dimethoxysalen Mn(III) acetate] |  | Y (7) | 16.1 µM | 
5 | CC(=O)[O-].COc1cccc(C=Nc2ccccc2N=Cc2cccc(OC)c2[O-])c1[O-].[Mn+3] [compound 12, 3,3′-Dimethoxysalphen Mn(III) acetate] |  | Y (12) | 22.2 µM | 
6 | COc1ccc(C=Nc2cc3ccccc3cc2N=Cc2ccc(OC)cc2[O-])c([O-])c1.[Cl-].[Fe+3] [compound 41, 4,4′-Dimethoxysalnaphen Fe(III) chloride] | 0.53 | Y (41) |  | 
7 | CC(=O)[O-].COc1ccc(C=Nc2ccccc2N=Cc2ccc(OC)cc2[O-])c([O-])c1.[Mn+3] [compound 13, 4,4′-Dimethoxysalphen Mn(III) acetate] |  | Y (13) | 15.5 µM and 15.6 µM | most effective on inducing cell death
8 | [Cl-].[Fe+3].[O-]c1ccccc1C=NCCCCN=Cc1ccccc1[O-] [compound 44, Bis(salicylidene)butanediamine Fe(III) chloride] |  |  |  | almost no cell killing activity
9 | [Cl-].[Fe+3].[O-]c1cc(O)ccc1C=Nc1ccccc1N=Cc1ccc(O)cc1[O-] [compound 31, 4,4′-Dihydroxysalphen Fe(III) chloride] |  | N (31) |  | did not have any effects on cell viability
10 | CC(=O)[O-].[Mn+3].[O-]c1c(O)cccc1C=NCCN=Cc1cccc(O)c1[O-] [compound 2, 3,3′-Dihydroxysalen Mn(III) acetate] |  | Y (2) | 37 µM | 
11 | CC(=O)[O-].COc1ccc([O-])c(C=Nc2ccccc2N=Cc2cc(OC)ccc2[O-])c1.[Mn+3] [compound 14, 5,5′-Dimethoxysalphen Mn(III) acetate] |  | Y (14) | 55.9 µM | 
12 | COc1cccc(C=NCCN=Cc2cccc(OC)c2[O-])c1[O-].[Cl-].[Fe+3] [compound 26, 3,3′-Dimethoxysalen Fe(III) chloride] |  | N (26) |  | did not show any significant effect on cell viability
13 | [Cl-].[Fe+3].[O-]c1cc(O)ccc1C=NCCN=Cc1ccc(O)cc1[O-] [compound 24, 4,4′-Dihydroxysalen Fe(III) chloride] |  | N (24) |  | 
14 | [Cl-].[Fe+3].[O-]c1ccc(O)cc1C=NCCN=Cc1cc(O)ccc1[O-] [compound 25, 5,5′-Dihydroxysalen Fe(III) chloride] |  | N (25) |  | 
15 | CC(=O)[O-].[Mn+3].[O-]c1cc(O)ccc1C=NCCN=Cc1ccc(O)cc1[O-] [compound 3, 4,4′-Dihydroxysalen Mn(III) acetate] |  | N^b (3) |  | did not have any significant effect on cell viability; also recorded: not active
16 | [Cl-].[Fe+3].[O-]c1ccccc1C=NCCCN=Cc1ccccc1[O-] [compound 43, Bis(salicylidene)propanediamine Fe(III) chloride] |  |  |  | almost no cell killing activity
17 | CC(=O)[O-].[Mn+3].[O-]c1ccccc1C=Nc1ccccc1N=Cc1ccccc1[O-] [compound 8, Mn(III)-salphen acetate] |  | Y (8) | 15 µM | 
18 | CC(=O)[O-].[Mn+3].[O-]c1ccc(O)cc1C=Nc1cc2ccccc2cc1N=Cc1cc(O)ccc1[O-] [compound 18, 5,5′-Dihydroxysalnaphen Mn(III) acetate] |  | N (18) |  | inactive
19 | 5,5′-Dimethoxysalnaphen Fe(III) chloride [compound 42] |  | Y (42) | 1.24 µM | 
20 | [Cl-].[Fe+3].[O-]c1c(O)cccc1C=NCCN=Cc1cccc(O)c1[O-] [compound 23, 3,3′-Dihydroxysalen Fe(III) chloride] |  | N (23) |  | 
21 | CC(=O)[O-].COc1ccc(C=Nc2cc3ccccc3cc2N=Cc2ccc(OC)cc2[O-])c([O-])c1.[Mn+3] [compound 20, 4,4′-Dimethoxysalnaphen Mn(III) acetate] |  | Y (20) | 20.4 µM and 20.5 µM | 
22 | CC(=O)[O-].COc1cccc(C=Nc2cc3ccccc3cc2N=Cc2cccc(OC)c2[O-])c1[O-].[Mn+3] [compound 19, 3,3′-Dimethoxysalnaphen Mn(III) acetate] |  | Y (19) | 39.7 µM | 
23 | Fe(III)-carboxysalphen] chloride [compound 45] |  |  |  | almost no cell killing activity
24 | N.N.[Cl][Pt][Cl] [cis-platin, Cis-diaminodichloro-platinum(II), reference compound] |  |  | ~20 µM | 
25 | COc1ccc([O-])c(C=Nc2ccccc2N=Cc2cc(OC)ccc2[O-])c1.[Cl-].[Fe+3] [compound 35, 5,5′-Dimethoxysalphen Fe(III) chloride] |  | Y (35) | 3.11 µM | 
26 | [Cl-].[Fe+3].[O-]c1c(O)cccc1C=Nc1ccccc1N=Cc1cccc(O)c1[O-] [compound 30, 3,3′-Dihydroxysalphen Fe(III) chloride] | 0.33 | Y (30) |  | 
27 | [Cl-].[Fe+3].[O-]c1cc(O)ccc1C=Nc1cc2ccccc2cc1N=Cc1ccc(O)cc1[O-] [compound 38, 4,4′-Dihydroxysalnaphen Fe(III) chloride] |  | N (38) |  | did not have any effects on cell viability
28 | [Cl-].[Fe+3].[O-]c1ccc(O)cc1C=Nc1cc2ccccc2cc1N=Cc1cc(O)ccc1[O-] [compound 39, 5,5′-Dihydroxysalnaphen Fe(III) chloride] |  | N (39) |  | did not have any effects on cell viability
29 | CC(=O)[O-].[Mn+3].[O-]c1cc(O)ccc1C=Nc1ccccc1N=Cc1ccc(O)cc1[O-] [compound 10, 4,4′-Dihydroxysalphen Mn(III) acetate] |  | N (10) |  | not active
30 | [Cl-].[Fe+3].[O-]c1ccc(O)cc1C=Nc1ccccc1N=Cc1cc(O)ccc1[O-] [compound 32, 5,5′-Dihydroxysalphen Fe(III) chloride] |  | N (32) |  | did not have any effects on cell viability
